Literature values in US20140378500A1, “METHODS FOR PREDICTING TUMOR REPONSE TO TARGETED THERAPIES” (20/20 Gene Systems, Inc., priority 2012, published 2014).

Tested on: advanced renal cell carcinoma (RCC)
Details: cited from earlier work

Compound: CO[C@H]1C[C@@H]2CC[C@@H](C)[C@@](O)(O2)C(=O)C(=O)N2CCCC[C@H]2C(=O)O[C@H]([C@H](C)C[C@@H]2CC[C@@H](OC(=O)C(C)(CO)CO)[C@H](OC)C2)CC(=O)[C@H](C)/C=C(\C)[C@@H](O)[C@@H](OC)C(=O)[C@H](C)C[C@H](C)/C=C/C=C/C=C/1C [TORISEL, Temsirolimus]
- kidney cancer patients who benefit materially (kidney cancer patients, mTOR inhibitors): less than 10%
- response rate (patients diagnosed with advanced RCC): less than 10%
